*1 amine or outer side, *2 acyl side, *3 side chain or, on linkers, in order; H or OH if unused. Where a SMILES comes first, the peptide text is derived from it. Side-chain parts run from the residue outwards. [ ]: non-standard residue; d: D form. The star is where a group is joined. Shikimoyl = O=C(C1=C[C@@H](O)[C@@H](O)[C@H](O)C1)*; dPhe(4-Cl) = N[C@H](Cc1ccc(Cl)cc1)C(=O)O; d2Nal = N[C@H](Cc1ccc2ccccc2c1)C(=O)O; Lys(iPr) = CC(C)NCCCC[C@H](N)C(=O)O; NMeY = CN[C@@H](Cc1ccc(O)cc1)C(=O)O; Ethylenediamine = C(CN[*:2])N[*:1]; hArg = N=C(N)NCCCC[C@H](N)C(=O)O; d3Pal = N[C@H](Cc1cccnc1)C(=O)O; Nicotinoyl = O=C(c1cccnc1)*; 2Furoyl = O=C(c1ccco1)*; CO = O=C([*:1])[*:2]
Each compound was assayed against T1, LHRH receptor (Rattus norvegicus, UniProt P30969) (assay: in vitro LHRH antagonist potency (pA2) against the agonist leuprolide). Conditions: negative logarithm of the antagonist concentration which shifts the response curve produced by the agonist leuprolide to two-fold higher concentration.
T1 construct: endogenous in cells
T1 sequence (P30969 1-327): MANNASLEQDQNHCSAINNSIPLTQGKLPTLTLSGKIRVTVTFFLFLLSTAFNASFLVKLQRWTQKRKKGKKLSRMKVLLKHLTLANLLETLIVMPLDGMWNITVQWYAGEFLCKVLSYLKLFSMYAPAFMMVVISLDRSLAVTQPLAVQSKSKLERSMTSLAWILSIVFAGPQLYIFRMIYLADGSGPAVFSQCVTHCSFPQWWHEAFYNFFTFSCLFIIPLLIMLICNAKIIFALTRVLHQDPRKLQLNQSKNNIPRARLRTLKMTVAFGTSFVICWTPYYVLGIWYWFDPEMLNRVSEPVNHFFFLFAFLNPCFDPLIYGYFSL
Assay type: cell-based
Method: Representative compounds of the present invention were evaluated in in vitro tests for receptor binding (pKI) and for LHRH antagonist potency (pA2). The tests employed the methods detailed in F. Haviv, et al., J. Med. Chem., 32: 2340-2344 (1989). The receptor binding affinities (pKI) are the negative logarithms of the equilibtirum dissociation constants (pA2) are the negative logarithms of the concentration of antagonist which shift the response curve roduced by the agonist leuprolide to two-fold higher concentration. (Leuprolide is the LHRH agonist having the structure 5-oxo-Pro^1 -His^2 -Trp^3 -Ser^4 -Tyr^5 -D-Leu^6 -Leu^7 -Arg^8 -Pro^9 -NHEt and is disclosed and claimed in U.S. Pat. No. 4,005,063.) Typically pA2 values of 9.5 or greater are indicative of good LHRH antagonist potency.
For `CC(=O)N[C@H](Cc1ccc2ccccc2c1)C(=O)N[C@H](Cc1ccc(Cl)cc1)C(=O)N[C@H](Cc1cccnc1)C(=O)N[C@@H](CO)C(=O)N(C)[C@@H](Cc1ccc(O)cc1)C(=O)N[C@H](CCCCNC(=O)CNC(=O)c1ccco1)C(=O)N[C@@H](CC(C)C)C(=O)N[C@@H](CCCCNC(C)C)C(=O)N1CCC[C@H]1C(=O)N[C@H](C)C(N)=O` [Example 6a, NAc-D2Nal^1 -D4ClPhe^2 -D3Pal^3 -Ser^4 -NMeTyr^5 -DLys(N-epsilon-Gly-2-Furoyl)^6 -Leu^7 -Lys(N-epsilon-Isopropyl)^8 -Pro^9 -DAla^10 NH2] (Ac-[d2Nal][dPhe(4-Cl)][d3Pal]S[NMeY][dK]([Gly-2Furoyl])L[Lys(iPr)]P[dA]-NH2), the Kb was 15.8 pM.
With `CC(=O)N[C@H](Cc1ccc2ccccc2c1)C(=O)N[C@H](Cc1ccc(Cl)cc1)C(=O)N[C@H](Cc1cccnc1)C(=O)N[C@@H](CO)C(=O)N(C)[C@@H](Cc1ccc(O)cc1)C(=O)N[C@H](CCCCNC(=O)CNC(=O)C1=C[C@@H](O)[C@@H](O)[C@H](O)C1)C(=O)N[C@@H](CC(C)C)C(=O)N[C@@H](CCCCNC(C)C)C(=O)N1CCC[C@H]1C(=O)N[C@H](C)C(N)=O` [Example 6b, NAc-D2Nal^1 -D4ClPhe^2 -D3Pal^3 -Ser^4 -NMeTyr^5 -DLys(N-epsilon-Gly-Shikimyl)^6 -Leu^7 -Lys(N-epsilon-Isopropyl)^8 -Pro^9 -DAla^10 NH2] (Ac-[d2Nal][dPhe(4-Cl)][d3Pal]S[NMeY][dK]([Gly-Shikimoyl])L[Lys(iPr)]P[dA]-NH2) the Kb was 24 pM.
`CC(=O)N[C@H](Cc1ccc2ccccc2c1)C(=O)N[C@H](Cc1ccc(Cl)cc1)C(=O)N[C@H](Cc1cccnc1)C(=O)N[C@@H](CO)C(=O)N(C)[C@@H](Cc1ccc(O)cc1)C(=O)N[C@H](CCCCNC(=O)[C@@H](CO)NC(=O)c1cccnc1)C(=O)N[C@@H](CC(C)C)C(=O)N[C@@H](CCCNC(=N)N)C(=O)N1CCC[C@H]1C(=O)N[C@H](C)C(N)=O` [Example 7, NAc-D2Nal^1 -D4ClPhe^2 -D3Pal^3 -Ser^4 -NMeTyr^5 -DLys(N-epsilon-DSer-Nicotinyl)^6 -Leu^7 -Arg^8 -Pro^9 -DAla^10 NH2] (Ac-[d2Nal][dPhe(4-Cl)][d3Pal]S[NMeY][dK]([dS-Nicotinoyl])LRP[dA]-NH2) was tested, and the Kb was 8.91 pM.
`CC(=O)N[C@H](CO)C(=O)NCCCC[C@@H](NC(=O)[C@H](Cc1ccc(O)cc1)N(C)C(=O)[C@H](CO)NC(=O)[C@@H](Cc1cccnc1)NC(=O)[C@@H](Cc1ccc(Cl)cc1)NC(=O)[C@@H](Cc1ccc2ccccc2c1)NC(C)=O)C(=O)N[C@@H](CC(C)C)C(=O)N[C@@H](CCCNC(=N)N)C(=O)N1CCC[C@H]1C(=O)N[C@H](C)C(N)=O` [Example 8, NAc-D2Nal^1 -D4ClPhe^2 -D3Pal^3 -Ser^4 -NMeTyr^5 -DLys(N-epsilon-DSer-Acetyl)^6 -Leu^7 -Arg^8 -Pro^9 -DAla^10 NH2] (Ac-[d2Nal][dPhe(4-Cl)][d3Pal]S[NMeY][dK]([dS-Ac])LRP[dA]-NH2) showed a Kb of 7.94 pM.
`CC(=O)N[C@@H](CO)C(=O)NCCCC[C@@H](NC(=O)[C@H](Cc1ccc(O)cc1)N(C)C(=O)[C@H](CO)NC(=O)[C@@H](Cc1cccnc1)NC(=O)[C@@H](Cc1ccc(Cl)cc1)NC(=O)[C@@H](Cc1ccc2ccccc2c1)NC(C)=O)C(=O)N[C@@H](CC(C)C)C(=O)N[C@@H](CCCNC(=N)N)C(=O)N1CCC[C@H]1C(=O)N[C@H](C)C(N)=O` [Example 9, NAc-D2Nal^1 -D4ClPhe^2 -D3Pal^3 -Ser^4 -NMeTyr^5 -DLys(N-epsilon-Ser-Acetyl)^6 -Leu^7 -Arg^8 -Pro^9 -DAla^10 NH2] (Ac-[d2Nal][dPhe(4-Cl)][d3Pal]S[NMeY][dK]([Ser-Ac])LRP[dA]-NH2) was tested, and the Kb was 8.91 pM.
For `CC(=O)N[C@H](Cc1ccc2ccccc2c1)C(=O)N[C@H](Cc1ccc(Cl)cc1)C(=O)N[C@H](Cc1cccnc1)C(=O)N[C@@H](CO)C(=O)N(C)[C@@H](Cc1ccc(O)cc1)C(=O)N[C@H](CCCCNC(=O)CNC(=O)c1cccnc1)C(=O)N[C@@H](CC(C)C)C(=O)N[C@@H](CCCNC(=N)N)C(=O)N1CCC[C@H]1C(=O)N[C@H](C)C(N)=O` [Example 10, NAc-D2Nal^1 -D4ClPhe^2 -D3Pal^3 -Ser^4 -NMeTyr^5 -DLys(N-epsilon-Gly-Nicotinyl)^6 -Leu^7 -Arg^8 -Pro^9 -DAla^10 NH2] (Ac-[d2Nal][dPhe(4-Cl)][d3Pal]S[NMeY][dK]([Gly-Nicotinoyl])LRP[dA]-NH2), the Kb was 5.01 pM.
For `CC(=O)N[C@H](Cc1ccc2ccccc2c1)C(=O)N[C@H](Cc1ccc(Cl)cc1)C(=O)N[C@H](Cc1cccnc1)C(=O)N[C@@H](CO)C(=O)N(C)[C@@H](Cc1ccc(O)cc1)C(=O)N[C@H](CCCCNC(=O)[C@@H](CO)NC(=O)C1=C[C@@H](O)[C@@H](O)[C@H](O)C1)C(=O)N[C@@H](CC(C)C)C(=O)N[C@@H](CCCNC(=N)N)C(=O)N1CCC[C@H]1C(=O)N[C@H](C)C(N)=O` [Example 11, NAc-D2Nal^1 -D4ClPhe^2 -D3Pal^3 -Ser^4 -NMeTyr^5 -DLys(N-epsilon-DSer-Shikimyl)^6 -Leu^7 -Arg^8 -Pro^9 -DAla^10 NH2] (Ac-[d2Nal][dPhe(4-Cl)][d3Pal]S[NMeY][dK]([dS-Shikimoyl])LRP[dA]-NH2), the Kb was 17 pM.
With `CC(=O)N[C@H](CO)C(=O)NCCCC[C@@H](NC(=O)[C@H](Cc1ccc(O)cc1)N(C)C(=O)[C@H](CO)NC(=O)[C@@H](Cc1cccnc1)NC(=O)[C@@H](Cc1ccc(Cl)cc1)NC(=O)[C@@H](Cc1ccc2ccccc2c1)NC(C)=O)C(=O)N[C@@H](CC(C)C)C(=O)N[C@@H](CCCCNC(=N)N)C(=O)N1CCC[C@H]1C(=O)N[C@H](C)C(N)=O` [Example 13, NAc-D2Nal^1 -D4ClPhe^2 -D3Pal^3 -Ser^4 -NMeTyr^5 -DLys(N-epsilon-DSer-Acetyl)^6 -Leu^7 -Harg^8 -Pro^9 -DAla^10 NH2] (Ac-[d2Nal][dPhe(4-Cl)][d3Pal]S[NMeY][dK]([dS-Ac])L[hArg]P[dA]-NH2) the Kb was 7.94 pM.
For `CC(=O)N[C@H](Cc1ccc2ccccc2c1)C(=O)N[C@H](Cc1ccc(Cl)cc1)C(=O)N[C@H](Cc1cccnc1)C(=O)N[C@@H](CO)C(=O)N(C)[C@@H](Cc1ccc(O)cc1)C(=O)N[C@H](CCCCNC(=O)NCCNC(=O)c1cccnc1)C(=O)N[C@@H](CC(C)C)C(=O)N[C@@H](CCCNC(=N)N)C(=O)N1CCC[C@H]1C(=O)N[C@H](C)C(N)=O` [Example 14, NAc-D2Nal^1 -D4ClPhe^2 -D3Pal^3 -Ser^4 -NMeTyr^5 -DLys[N-epsilon-(N'-Carbonyl-Diaminoethane-N"-Nicotinyl)]^6 -Leu^7 -Arg^8 -Pro^9 -DAla^10 NH2] (Ac-[d2Nal][dPhe(4-Cl)][d3Pal]S[NMeY][dK]([CO-Ethylenediamine-Nicotinoyl])LRP[dA]-NH2), the Kb was 166 pM.
Work on `CC(=O)N[C@H](Cc1ccc2ccccc2c1)C(=O)N[C@H](Cc1ccc(Cl)cc1)C(=O)N[C@H](Cc1cccnc1)C(=O)N[C@@H](CO)C(=O)N(C)[C@@H](Cc1ccc(O)cc1)C(=O)N[C@H](CCCCNC(=O)NCCNC(=O)C1=C[C@@H](O)[C@@H](O)[C@H](O)C1)C(=O)N[C@@H](CC(C)C)C(=O)N[C@@H](CCCNC(=N)N)C(=O)N1CCC[C@H]1C(=O)N[C@H](C)C(N)=O` [Example 15, NAc-D2Nal^1 -D4ClPhe^2 -D3Pal^3 -Ser^4 -NMeTyr^5 -DLys[N-epsilon-(N'-Carbonyl-Diaminoethane-N"-Shikimyl)]^6 -Leu^7 -Arg^8 -Pro^9 -DAla^10 NH2] (Ac-[d2Nal][dPhe(4-Cl)][d3Pal]S[NMeY][dK]([CO-Ethylenediamine-Shikimoyl])LRP[dA]-NH2) yielded a Kb of 2.82 pM.
`CC(=O)N[C@H](Cc1ccc2ccccc2c1)C(=O)N[C@H](Cc1ccc(Cl)cc1)C(=O)N[C@H](Cc1cccnc1)C(=O)N[C@@H](CO)C(=O)N(C)[C@@H](Cc1ccc(O)cc1)C(=O)N[C@H](CCCCNC(=O)CNC(=O)C1=C[C@@H](O)[C@@H](O)[C@H](O)C1)C(=O)N[C@@H](CC(C)C)C(=O)N[C@@H](CCCNC(=N)N)C(=O)N1CCC[C@H]1C(=O)N[C@H](C)C(N)=O` [Example 17, NAc-D2Nal^1 -D4ClPhe^2 -D3Pal^3 -Ser^4 -NMeTyr^5 -DLys(N-epsilon-Gly-Shikimyl)^6 -Leu^7 -Arg^8 -Pro^9 -DAla^10 NH2] (Ac-[d2Nal][dPhe(4-Cl)][d3Pal]S[NMeY][dK]([Gly-Shikimoyl])LRP[dA]-NH2) was tested, and the Kb was 7.24 pM.
For `CC(=O)N[C@H](Cc1ccc2ccccc2c1)C(=O)N[C@H](Cc1ccc(Cl)cc1)C(=O)N[C@H](Cc1cccnc1)C(=O)N[C@@H](CO)C(=O)N(C)[C@@H](Cc1ccc(O)cc1)C(=O)N[C@H](CCCCNC(=O)CNC(=O)c1ccco1)C(=O)N[C@@H](CC(C)C)C(=O)N[C@@H](CCCNC(=N)N)C(=O)N1CCC[C@H]1C(=O)N[C@H](C)C(N)=O` [Example 18, NAc-D2Nal^1 -D4ClPhe^2 -D3Pal^3 -Ser^4 -NMeTyr^5 -DLys(N-epsilon-Gly-2Furoyl)^6 -Leu^7 -Arg^8 -Pro^9 -DAla^10 NH2] (Ac-[d2Nal][dPhe(4-Cl)][d3Pal]S[NMeY][dK]([Gly-2Furoyl])LRP[dA]-NH2), the Kb was 3.09 pM.
